Columns and labels:
Test in all cases: relative viability (nuclei count vs DMSO), 5 days (fraction); higher = more cells survive
[1] = compound: COC1=CC=C(C=C1)CN2C=CC3=C2C=C(C=C3)C(=O)NO + CS(=O)(=O)N1CCN(Cc2cc3nc(-c4cccc5[nH]ncc45)nc(N4CCOCC4)c3s2)CC1 [Pictilisib] (partner 1 µM)
Procedure, shortened: (§1)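 The day after seeding in 1536-well plates, lung cancer cell lines were treated by pin tool with a single drug, or with a fixed anchor-drug dose together with five library-drug doses (not always all listed) in √10 steps. After 5 days, a combined fix-and-stain solution (final 0.05% Triton X-100, 1% formaldehyde, 1 ug/ml Hoechst) was added. Nuclei counted on 4× images gave relative viability as treated counts over vehicle counts, reported as the median of duplicate plates.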

Veliparib + Dasatinib = compound: C[C@]1(c2nc3c(C(N)=O)cccc3[nH]2)CCCN1 [Veliparib] + Cc1nc(Nc2ncc(C(=O)Nc3c(C)cccc3Cl)s2)cc(N2CCN(CCO)CC2)n1 [Dasatinib] (partner 0.075 µM)
Procedure, shortened: as §1

[2] = compound: COC1=CC=C(C=C1)CN2C=CC3=C2C=C(C=C3)C(=O)NO + O=C(c1cc(Cc2n[nH]c(=O)c3ccccc23)ccc1F)N1CCN(C(=O)C2CC2)CC1 [Olaparib] (partner 8 µM)
Procedure, shortened: as §1

[3] = compound: COC1=CC=C(C=C1)CN2C=CC3=C2C=C(C=C3)C(=O)NO + CC(C)C[C@H](NC(=O)[C@H](Cc1ccccc1)NC(=O)c1cnccn1)B(O)O [Bortezomib] (partner 0.002 µM)
Procedure, shortened: as §1

| Cell Line | relative viability ([1]; first compound 0.253 µM) | relative viability ([1]; first compound 0.8 µM) | relative viability ([1]; first compound 2.53 µM) | relative viability ([1]; first compound 8 µM) | relative viability (Veliparib + Dasatinib; first compound 0.02 µM) | relative viability (Veliparib + Dasatinib; first compound 0.06325 µM) | relative viability (Veliparib + Dasatinib; first compound 0.2 µM) | relative viability (Veliparib + Dasatinib; first compound 0.6325 µM) | relative viability (Veliparib + Dasatinib; first compound 2 µM) | relative viability ([2]; first compound 0.253 µM) | relative viability ([2]; first compound 0.8 µM) | relative viability ([2]; first compound 2.53 µM) | relative viability ([2]; first compound 8 µM) | relative viability ([1]; first compound 0.08 µM) | relative viability ([3]; first compound 0.08 µM) | relative viability ([3]; first compound 0.253 µM) | relative viability ([3]; first compound 0.8 µM) | relative viability ([3]; first compound 2.53 µM) | relative viability ([3]; first compound 8 µM) | relative viability ([2]; first compound 0.08 µM) |
| --- | --- | --- | --- | --- | --- | --- | --- | --- | --- | --- | --- | --- | --- | --- | --- | --- | --- | --- | --- | --- |
| NCI-H358 | 0.429 | 0.422 | 0.337 | 0.296 | 0.0991 | 0.156 | 0.169 | 0.131 | 0.152 | 0.614 | 0.59 | 0.544 | 0.49 |  |  |  |  |  |  |  |
| NCI-H522 |  |  |  |  | 0.887 | 0.904 | 0.963 | 0.831 | 0.812 | 0.669 | 0.693 | 0.65 | 0.568 |  |  |  |  |  |  |  |
| NCI-H1299 | 1.03 | 0.77 | 0.658 | 0.593 |  |  |  |  |  | 0.98 | 0.948 | 1.03 | 0.92 | 0.834 | 0.994 | 1.06 | 1.04 | 1.03 | 1.03 | 1.04 |
| NCI-H1395 | 0.653 | 0.58 | 0.583 | 0.505 | 0.379 | 0.381 | 0.46 | 0.414 | 0.437 | 0.419 | 0.49 | 0.496 | 0.436 | 0.683 |  |  |  |  |  |  |
| NCI-H1563 | 0.656 | 0.645 | 0.706 | 0.618 | 0.462 | 0.474 | 0.4 | 0.491 | 0.482 |  |  |  |  | 0.547 | 0.788 | 0.916 | 0.95 | 0.839 | 0.69 |  |
| NCI-H1648 |  |  |  |  |  |  |  |  |  | 0.725 | 0.964 | 0.932 | 0.651 |  |  |  |  |  |  | 0.81 |
| NCI-H1703 | 0.259 | 0.221 | 0.256 | 0.147 |  |  |  |  |  | 0.581 | 0.817 | 0.491 | 0.46 |  | 0.322 | 0.403 | 0.327 | 0.32 | 0.26 |  |
| NCI-H1793 | 0.239 | 0.395 | 0.267 | 0.335 | 0.398 | 0.448 | 0.408 | 0.277 | 0.448 | 0.911 | 0.898 | 0.893 | 0.865 | 0.17 |  |  |  |  |  |  |
| NCI-H1944 | 0.37 | 0.317 | 0.357 | 0.322 | 0.204 | 0.196 | 0.21 | 0.195 | 0.219 | 0.425 | 0.422 | 0.423 | 0.374 |  |  |  |  |  |  |  |
| NCI-H2170 | 0.393 | 0.347 | 0.27 | 0.279 | 0.549 | 0.629 | 0.587 | 0.562 | 0.592 | 0.556 | 0.635 | 0.648 | 0.523 | 0.271 |  |  |  |  |  | 0.55 |
| NCI-H2342 |  |  |  |  | 0.293 | 0.297 | 0.299 | 0.321 | 0.288 | 0.449 | 0.457 | 0.442 | 0.373 |  |  |  |  |  |  | 0.437 |
| SK-MES-1 | 0.384 | 0.368 | 0.36 | 0.332 | 0.39 | 0.34 | 0.432 | 0.397 | 0.484 | 0.665 | 0.676 | 0.64 | 0.598 | 0.343 |  |  |  |  |  | 0.788 |
| SW 900 |  |  |  |  |  |  | 0.538 | 0.644 | 0.696 | 0.956 | 0.769 | 0.849 | 0.604 |  |  |  |  |  |  | 0.759 |

From the supplement of paper PMC10307832
